# According to PubChem BioAssay (NCI):
# Values joined by “and” are separate entries in the source; they are usually repeats but may differ in a detail not shown here. Equal values may be shown once.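 Five compound concentrations were applied to cells in 96-well plates for 48 hours; endpoints were derived by simple linear interpolation of the resulting dose-response curve. The concentration for 50% growth inhibition is given as GI50. Definition used: TGI = concentration required for complete inhibition of growth.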
# Experiments:
# Experiment in all cases: DTP human tumour cell line panel, 48 h
# [1] = system: PC-3 prostate
# [2] = system: COLO 205 colon
# [3] = system: DU-145 prostate
# [4] = system: SK-MEL-2 melanoma
# [5] = system: K-562 leukemia
# [6] = system: SR leukemia
# [7] = system: MDA-MB-231 breast
# [8] = system: KM12 colon
# [9] = system: NCI-H522 lung
# [10] = system: A549 NSCLC
# [11] = system: 786-0 renal
# [12] = system: NCI-H226 lung
# [13] = system: NCI-H460 lung
# [14] = system: UO-31 renal
# [15] = system: UACC-62 melanoma
# [16] = system: BT-549 breast
# [17] = system: UACC-257 melanoma
# [18] = system: HCT-116 colon
# [19] = system: M14 melanoma
# [20] = system: HCC-2998 colon
# [21] = system: MDA-MB-435
# [22] = system: OVCAR-8 ovarian
# [23] = system: TK-10 renal
# [24] = system: RXF 393 renal
# [25] = system: SN12C renal
# [26] = system: SK-MEL-28 melanoma
# [27] = system: LOX IMVI melanoma
# [28] = system: CCRF-CEM leukemia
# [29] = system: EKVX NSCLC
# [30] = system: NCI-H23 lung
# [31] = system: OVCAR-3 ovarian
# [32] = system: OVCAR-5 ovarian
# [33] = system: SW-620 colon
# [34] = system: HCT-15 colon
# [35] = system: CAKI-1 renal
# [36] = system: MDA-N
# [37] = system: RPMI-8226 leukemia
# [38] = system: A498 renal
# [39] = system: MALME-3M melanoma
# [40] = system: HT29 colon
# [41] = system: OVCAR-4 ovarian
# [42] = system: SF-295 CNS
# [43] = system: SK-OV-3 ovarian
# [44] = system: T-47D breast
# [45] = system: SF-268 CNS
# [46] = system: IGROV1 ovarian
# [47] = system: SNB-75 CNS
# [48] = system: HS 578T breast
# [49] = system: HOP-92 NSCLC
# [50] = system: HL-60(TB) leukemia
# [51] = system: U251 CNS
# [52] = system: SNB-19 CNS
# [53] = system: ACHN renal
# [54] = system: HOP-62 NSCLC
# [55] = system: SF-539 CNS
# [56] = system: MOLT-4 leukemia
# [57] = system: MCF7 breast
# [58] = system: SK-MEL-5 melanoma
smiles,measurement,setting,value
COc1cccc2c1C(=O)c1c(O)c3c(c(O)c1C2=O)CC(O)(C(=O)CO)CC3OC1CC(N)C(O)C(C)O1 (centres undefined),GI50,[1],37.2 µg/mL and 52.2 µg/mL
same,TGI,[1],75 µg/mL and > 150 µg/mL
same,GI50,[2],9.99 µg/mL and 25.6 µg/mL
same,TGI,[2],75 µg/mL and > 150 µg/mL
same,GI50,[3],15.9 µg/mL and 71 µg/mL
same,TGI,[3],75 µg/mL and > 150 µg/mL
same,GI50,[4],24.1 µg/mL and 44.3 µg/mL
same,TGI,[4],75 µg/mL and 138 µg/mL
same,GI50,[5],9.4 µg/mL and 25.2 µg/mL
same,TGI,[5],75 µg/mL and > 150 µg/mL
same,GI50,[6],0.465 µg/mL and 1.18 µg/mL
same,TGI,[6],7.2 µg/mL and 6.76 µg/mL
same,GI50,[7],44.1 µg/mL and 79.3 µg/mL
same,TGI,[7],75 µg/mL and > 150 µg/mL
same,GI50,[8],16.9 µg/mL and 54.4 µg/mL
same,TGI,[8],75 µg/mL and > 150 µg/mL
same,GI50,[9],4.07 µg/mL
same,TGI,[9],75 µg/mL
same,GI50,[10],4.17 µg/mL and 22.6 µg/mL
same,TGI,[10],75 µg/mL and > 150 µg/mL
same,GI50,[11],6.54 µg/mL and 10.4 µg/mL
same,TGI,[11],75 µg/mL and > 150 µg/mL
same,GI50,[12],1.75 µg/mL and 7.36 µg/mL
same,TGI,[12],12.6 µg/mL and 28.5 µg/mL
same,GI50,[13],0.709 µg/mL and 0.986 µg/mL
same,TGI,[13],75 µg/mL and 27.3 µg/mL
same,GI50,[14],59 µg/mL and > 150 µg/mL
same,TGI,[14],75 µg/mL and > 150 µg/mL
same,GI50,[15],7.54 µg/mL and 18.6 µg/mL
same,TGI,[15],27.8 µg/mL and 62 µg/mL
same,GI50,[16],34.6 µg/mL and 108 µg/mL
same,TGI,[16],75 µg/mL and > 150 µg/mL
same,GI50,[17],29.9 µg/mL and 25.1 µg/mL
same,TGI,[17],75 µg/mL and 113 µg/mL
same,GI50,[18],7.26 µg/mL and 17.4 µg/mL
same,TGI,[18],75 µg/mL and > 150 µg/mL
same,GI50,[19],9.35 µg/mL and 48.5 µg/mL
same,TGI,[19],75 µg/mL and > 150 µg/mL
same,GI50,[20],37.2 µg/mL and 26 µg/mL
same,TGI,[20],75 µg/mL and 122 µg/mL
same,GI50,[21],8.56 µg/mL and 67 µg/mL
same,TGI,[21],75 µg/mL and > 150 µg/mL
same,GI50,[22],19.5 µg/mL and 45.7 µg/mL
same,TGI,[22],75 µg/mL and > 150 µg/mL
same,GI50,[23],75 µg/mL and 30 µg/mL
same,TGI,[23],75 µg/mL and > 150 µg/mL
same,GI50,[24],13.3 µg/mL and > 150 µg/mL
same,TGI,[24],75 µg/mL and > 150 µg/mL
same,GI50,[25],14.4 µg/mL and 13 µg/mL
same,TGI,[25],75 µg/mL and > 150 µg/mL
same,GI50,[26],33.8 µg/mL and 44.8 µg/mL
same,TGI,[26],75 µg/mL and > 150 µg/mL
same,GI50,[27],3.89 µg/mL and 19.5 µg/mL
same,TGI,[27],75 µg/mL and > 150 µg/mL
same,GI50,[28],0.801 µg/mL and 4.97 µg/mL
same,GI50,[29],75 µg/mL
same,TGI,[29],75 µg/mL
same,GI50,[30],11.3 µg/mL and 49.1 µg/mL
same,TGI,[30],75 µg/mL and > 150 µg/mL
same,GI50,[31],22.6 µg/mL and 35.8 µg/mL
same,TGI,[31],75 µg/mL and > 150 µg/mL
same,GI50,[32],75 µg/mL and > 150 µg/mL
same,TGI,[32],75 µg/mL and > 150 µg/mL
same,GI50,[33],7.14 µg/mL and 21.2 µg/mL
same,TGI,[33],75 µg/mL and > 150 µg/mL
same,GI50,[34],75 µg/mL and > 150 µg/mL
same,TGI,[34],75 µg/mL and > 150 µg/mL
same,GI50,[35],16.3 µg/mL and 64 µg/mL
same,TGI,[35],75 µg/mL and > 150 µg/mL
same,GI50,[36],37.5 µg/mL and 69.1 µg/mL
same,TGI,[36],75 µg/mL and > 150 µg/mL
same,GI50,[37],7.24 µg/mL and 13.2 µg/mL
same,TGI,[37],75 µg/mL and 112 µg/mL
same,GI50,[38],19 µg/mL and 33.8 µg/mL
same,TGI,[38],75 µg/mL and > 150 µg/mL
same,GI50,[39],10 µg/mL and 81.4 µg/mL
same,TGI,[39],75 µg/mL and > 150 µg/mL
same,GI50,[40],15.7 µg/mL and 49.5 µg/mL
same,TGI,[40],75 µg/mL and > 150 µg/mL
same,GI50,[41],46.6 µg/mL and > 150 µg/mL
same,TGI,[41],75 µg/mL and > 150 µg/mL
same,GI50,[42],18.6 µg/mL and 14.3 µg/mL
same,TGI,[42],75 µg/mL and 116 µg/mL
same,GI50,[43],22.6 µg/mL and 14.9 µg/mL
same,TGI,[43],75 µg/mL and 143 µg/mL
same,GI50,[44],7.53 µg/mL and 54.8 µg/mL
same,TGI,[44],73.9 µg/mL and > 150 µg/mL
same,GI50,[45],7.5 µg/mL
same,TGI,[45],75 µg/mL
same,GI50,[46],16.1 µg/mL and 60.1 µg/mL
same,TGI,[46],75 µg/mL and > 150 µg/mL
same,GI50,[47],9.12 µg/mL and 51.1 µg/mL
same,TGI,[47],55 µg/mL and > 150 µg/mL
same,GI50,[48],33.8 µg/mL
same,TGI,[48],75 µg/mL
same,GI50,[49],23.9 µg/mL and 7.86 µg/mL
same,TGI,[49],75 µg/mL and 127 µg/mL
same,GI50,[50],2.84 µg/mL and 26.4 µg/mL
same,TGI,[50],75 µg/mL and > 150 µg/mL
same,GI50,[51],2.22 µg/mL and 6.15 µg/mL
same,TGI,[51],75 µg/mL and 44 µg/mL
same,GI50,[52],2.04 µg/mL and 54.6 µg/mL
same,TGI,[52],75 µg/mL and > 150 µg/mL
same,GI50,[53],20.2 µg/mL and 12.2 µg/mL
same,TGI,[53],75 µg/mL and > 150 µg/mL
same,GI50,[54],5.83 µg/mL and 5.96 µg/mL
same,TGI,[54],75 µg/mL and > 150 µg/mL
same,GI50,[55],38.3 µg/mL and 18.8 µg/mL
same,TGI,[55],75 µg/mL and 94.8 µg/mL
same,GI50,[56],1.13 µg/mL and 1.46 µg/mL
same,GI50,[57],2.76 µg/mL and 10.7 µg/mL
same,TGI,[57],75 µg/mL and > 150 µg/mL
same,GI50,[58],4.76 µg/mL and 15.7 µg/mL
same,TGI,[58],23.4 µg/mL and 44.8 µg/mL
